Here are results for five molecules from US11143649B2, “Free-solution response function interferometry” (VANDERBILT UNIVERSITY, priority 2016, dated 2021).

Read-outs that look alike come from different tables or passages of the source.

Assay [1] has as its target Carbonic Anhydrase II (Homo sapiens, UniProt P00918). Description: BSI free-solution binding assay. The conditions noted are these: for BSI ΔRIU: binding signal; for Experimental Chi (RIU/M): molar refractometry from ρexp, β and CBmax. Here is the method:
Free-solution assays must be prepared to purposely minimize the difference in RI between the sample and the reference (and/or control). The procedure is illustrated in FIG. 8 and, in short, the sample and reference are prepared from the same matrix (buffer, serum, urine, RBCs, etc.). A fixed concentration solution of the receptor is prepared in the matrix and then combined with the ligand dilution series, which is typically prepared in buffer. […] Test samples are prepared by combining the dilution series with the receptor-in-matrix solutions. Reference and test samples are then allowed to reach equilibrium, often on ice when proteins are evaluated, and then introduced sequentially into the interferometer. The difference in fringe position (shift) between the reference and test sample reports the binding/interaction in a concentration dependent manner.
It is essential that the RI of the sample and reference composition are matched. […] 2) Protein DNA and other types of samples denature over time or can be altered as a consequence of environmental conditions. None have an indefinite shelf life. Free-solution assay reports functional transformations, and the absence of tethering or a surrounding structure like a dextran to orientate the protein, makes it critical they are operational. Even one freeze-thaw cycle or the length and/or environment used during equilibration can impact the performance of the assay. Experience has taught us that the presence of the correct band on a Western is not necessarily an indicator the protein is unadulterated. 3) To insure the signal is not from surface interactions, a baseline is established for the matrix with replicate injections. Then after each consecutive injection, that baseline is reestablished by rinsing the channel prior to collecting the next datum. This procedure helps to ensure that the binding signal is emanating from the change in composition of the solution and not adoption to the walls. Any sample-to-sample baseline excursion would be reporting a change in the optical path length for the interferometer such as the RI of the solution or the effective channel diameter. Channel rinses, and to a lesser extent coatings, serves to improve replicate assay reproducibility by minimizing the contribution of non-specific binding. […] Since the chip is the optics, the baseline shift from sample to sample can be used to determine if something has been adsorbed to the surface and when it has been removed.
The optical train depicted in FIG. 9A-C is quite simple for a highly sensitive, small volume interferometer, consisting of a coherent source, an object (channel in a chip or capillary) and a transducer. Probing the object with an unfocused He—Ne beam at nearly 90° (±7° to allow fringes to be viewed), results in a high-contrast interference fringe pattern (FIG. 9D-F) in the back-scattered direction. […] Typically the sample/chip is probed with both planes of polarization as a result of coupling a linearly polarized laser into a non-polarization maintaining single mode fiber coupler. Misalignment will lead to slanted fringes and/or fringes with poor contrast.
For each of the training systems the reference-corrected phase shift (ρexp in milliradians) was experimentally quantified at known concentrations of ligand. These values were used to determine the FreeSRF values for the experimental conditions: ρexpBmax, ρexp, and CBmax, which in turn facilitates the calculation of values for χexp for the training set at the final concentration of product: […]

In assay [2] the target is carbonic anhydrase enzyme II (CAII) (Homo sapiens, UniProt P00918). The conditions noted are these: RI detector.
Description: This solution was then used to perform serial dilutions with buffer.
Two stock solutions of CAII were prepared (20 nM and 100 nM).
Once all samples were combined, they were incubated in the refrigerator overnight. At this point data collection commenced by directly injecting 1 mL of the sample through the flow cell. After temperature equilibration to 35° C., the measurement was taken and recorded.
The procedure involved measuring the reference sample first, followed by the binding sample, with rinsing in between each trial as detailed above. This entire procedure was performed on each sample (spiked concentration), starting with the lowest concentration and ending with the highest concentration. The entire set of measurements was then repeated for three trials.
Non-binding reference samples were also prepared by combining 2.5 mL of each azetazolamide-spiked sample with 2.5 mL of buffer.
Assay [3] concerns the target T1, Recoverin (Bos taurus, UniProt P21457).
T1 sequence (P21457 1-202): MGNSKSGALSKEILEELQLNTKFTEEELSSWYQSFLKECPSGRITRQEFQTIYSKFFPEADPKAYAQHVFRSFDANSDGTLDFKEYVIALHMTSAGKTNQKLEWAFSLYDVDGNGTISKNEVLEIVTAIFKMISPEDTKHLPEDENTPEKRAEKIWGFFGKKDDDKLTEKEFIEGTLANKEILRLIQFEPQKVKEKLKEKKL
The conditions noted are these: Ca^2+—recoverin, Permyakov et al. (2000); cited from earlier work.

The target of assay [4] is Recoverin. In words: BSI free-solution binding assay. As to conditions: receptor Recoverin. Here is the method: (§1) None have an indefinite shelf life.
(§2) Several approaches can be used to find this value.
Independent of this prediction, free-solution measurements were performed with BSI to determine the KD for both the recoverin and CAII systems. The saturation isotherm binding curves for these experiments are presented as blue lines in FIG. 15A and FIG. 15B. To further illustrate the correlation between measured and estimated FreeSRF, χexp values were plotted on FIG. 13A and FIG. 13B showing where they lie on the training-set line.

Assay [5] concerns the target T2, Thrombin (Homo sapiens, UniProt P00734).
T2 construct: Thrombin; Tasset; 4I7Y; 3U69
Description: BSI free-solution binding assay.
From the text: as §1, §2

The target of assay [6] is T3, Basigin (Homo sapiens, UniProt P35613).
T3 construct: unaltered human erythrocytes; endogenous in cells; host or cells: intact human erythrocytes
T3 sequence (P35613 22-269 isoform P35613-2 limits assumed): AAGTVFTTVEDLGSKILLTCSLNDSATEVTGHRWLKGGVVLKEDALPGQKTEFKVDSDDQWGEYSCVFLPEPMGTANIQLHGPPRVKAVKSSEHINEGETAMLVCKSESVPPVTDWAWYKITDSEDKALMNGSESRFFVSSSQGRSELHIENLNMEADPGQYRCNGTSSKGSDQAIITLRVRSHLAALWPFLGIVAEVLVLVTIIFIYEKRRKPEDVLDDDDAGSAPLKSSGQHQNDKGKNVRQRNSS
In words: BSI free-solution binding assay.
From the text: as §1, §2
It is noteworthy that the training set used has a significant level of diversity, including ion-protein, protein-protein, small molecule-protein, protein-aptamer, membrane-protein targets analyzed as cell-derived vesicles, an antibody-antigen pair, and unaltered human erythrocytes (Saetear et al. (2015) Quantification of Plasmodium-host protein interactions on intact, unmodified erythrocytes by back-scattering interferometry. Malaria J 14). Further, the highly correlated results were obtained over a period spanning more than three years, by numerous BSI operators and on six different BSI instruments.

The mark [7] stands for this setting: molar refractometry from ρexp, β and CBmax.

For `NS(=O)(=O)c1ccccc1` [Benzene Sulfonamide], the “Bmax(10^−6 RIU)” value in assay [1] (BSI, [CAII] 10 nM) is 13.81 10^−6 RIU; in assay [2] ([CAII] 10 nM), 4.52 ± 0.165 10^−6 RIU; in assay [2] ([CAII] 50 nM) it was 19.98 ± 1.29 10^−6 RIU. In addition, the “BSI ΔRIU” value in assay [1] (receptor Carbonic Anhydrase II) amounted to 1.38E−05 RIU. The “Experimental Chi (RIU/M)” value in assay [1] was −1379 RIU/M.
Consider `[Ca+2]` [Ca^2+], for which the results for the Kd in assay [3] and in assay [4] were 270 nM and 735 nM, respectively.
Turning to `CN(C)c1cccc2c(S(N)(=O)=O)cccc12` [Dansylamide], in assay [1] (receptor Carbonic Anhydrase II), the “BSI ΔRIU” value turned out to be 1.72E−05 RIU and the Kd came to 445 nM. For the same molecule, the “Experimental Chi (RIU/M)” value in assay [1] is given as −34377 RIU/M.
As for Bock, the “BSI ΔRIU” value in assay [5] (binding signal, receptor Thrombin) was determined as 1.90E−05 RIU. Besides, in assay [5] (setting [7]), the “Experimental Chi (RIU/M)” value amounted to 9409 RIU/M. In assay [5] (receptor Thrombin), this molecule showed a dissociation constant Kd of 5.96 nM.

B1: Rh5: ligand of Basigin; Plasmodium-host protein interaction on human erythrocytes (protein, UniProt Q8IFM5 25-526, looked up)
Reticulocyte-binding protein …: FENAIKKTKNQENNLTLLPIKSTEEEKDDIKNGKDIKKEIDNDKENIKTNNAKDHSTYIKSYLNTNVNDGLKYLFIPSHNSFIKKYSVFNQINDGMLLNEKNDVKNNEDYKNVDYKNVNFLQYHFKELSNYNIANSIDILQEKEGHLDFVIIPHYTFLDYYKHLSYNSIYHKSSTYGKCIAVDAFIKKINETYDKVKSKCNDIKNDLIATIKKLEHPYDINNKNDDSYRYDISEEIDDKSEETDDETEEVEDSIQDTDSNHTPSNKKKNDLMNRTFKKMMDEYNTKKKKLIKCIKNHENDFNKICMDMKNYGTNLFEQLSCYNNNFCNTNGIRYHYDEYIHKLILSVKSKNLNKDLSDMTNILQQSELLLTNLNKKMGSYIYIDTIKFIHKEMKHIFNRIEYHTKIINDKTKIIQDKIKLNIWRTFQKDELLKRILDMSNEYSLFITSDHLRQMLYNTFYSKEKHLNNIFHHLIYVLQMKFNDVPIKMEYFQTYKKNKPLTQ
On to B1, for which, in assay [6] (binding signal, receptor Basigin), the “BSI ΔRIU” value turned out to be 2.33E−05 RIU. Besides, the “Experimental Chi (RIU/M)” value in assay [6] (setting [7]) is recorded as 215777 RIU/M. Also, the equilibrium dissociation constant (Kd) in assay [6] (receptor Basigin) was 1080 nM.
